# How the values were obtained:
# [1] = test system: men; conditions: cited from earlier work
# [2] = test system: healthy male volunteers; assay: Human clinical trial: free testosterone levels after CASODEX together with NOLVADEX or CASODEX alone; format: in vivo; conditions: for Free testosterone concentration, gmean: n=7
# Description: The following clinical trial was performed to determine the effect of the administration of CASODEX™ together with NOLVADEX™ on free testosterone levels in healthy male volunteers over a 6 week period.
# Key Inclusion Criteria: Male, aged 65 years or above showing no clinically significant abnormalities in routine haematological and biochemical tests and having endocrinology and prostate specific antigen (PSA) results within normal limits.
# Key Exclusion Criteria: Previous inclusion in a clinical trial using CASODEX™; concurrent treatment with any drugs with the exception of paracetomol; history or presence of any testicular abnormality; history or presence of gastrointestinal, hepatic or renal disease, or other condition known to interfere with the absorption, distribution, metabolism or excretion of drugs; a clinically significant illness within 2 weeks of trial commencement; definite or suspected personal or family history of significant adverse drug reactions or any hypersensitivity to CASODEX™ or NOLVADEX™; treatment within the previous 3 months with any drugs known to have a well-defined potential for hepatotoxicity or hepatic interaction.
# Dosage: The CASODEX™ was administered daily at a dose of 150 mg and the NOLVADEX™ was administered daily at a dose of 20 mg. All treatments were in tablet form and taken once daily. Daily treatment with CASODEX™ plus NOLVADEX™ was for 6 weeks, this period being selected as the minimum time to attain steady-state plasma concentrations for the drugs. Another set of volunteers were administered CASODEX™ alone at a daily dose of 150 mg for 4 weeks. All treatments were in tablet form and taken once daily.
# Key Assessment: Free testosterone concentrations were measured during the course of the trial.
# Day 1 samples were drawn before dosing, and therefore act as a baseline measurement.
# [3] = test system: humans; conditions: single agent therapy; cited from earlier work
smiles,measurement,setting,value
"CC/C(=C(\c1ccccc1)c1ccc(OCCN(C)C)cc1)c1ccccc1 [tamoxifen, (Z)-2-[p-(1,2-diphenylbut-1-enyl)phenoxy]ethyldimethylamine]","Effect on mean serum testosterone, oestradiol, LH levels, LH pulse frequency and LH pulse amplitude","[1]; 13 normal men, 6 week administration (Spijkstra et al)",An increase
same,"Effect on basal serum levels of LH, oestradiol and testosterone",[1]; administration to men (Lewis-Jones et al),elevates
same,Effect on testosterone and LH,[1]; intake in adult men (Comhaire et al),increase testosterone and LH
same,"Effect on basal LH, FSH and testosterone levels","[1]; three months' treatment, normogonadotrophic oligozoospermic men (van Bergeijk et al)",stimulated
"CC(O)(CS(=O)(=O)c1ccc(F)cc1)C(=O)Nc1ccc(C#N)c(C(F)(F)F)c1 (stereo not drawn) [CASODEX™, bicalutamide]","Free testosterone concentration, gmean","[2]; Day 1, sample drawn before dosing (baseline)",0.048 nmol/L
same,"Free testosterone, ratio to Day 1","[2]; Day 29, CASODEX alone 150 mg daily",1.58
same,"Free testosterone concentration, gmean","[2]; Day 29, CASODEX alone 150 mg daily for 4 weeks",0.076 nmol/L
same,Increase in mean free testosterone concentration by the end of the treatment period,[2]; end of treatment period (4 weeks CASODEX alone; 6 weeks combination),58%
"CC1(C)NC(=O)N(c2ccc([N+](=O)[O-])c(C(F)(F)F)c2)C1=O [nilutamide, 5,5-dimethyl-3-[4-nitro-3-(trifluoromethyl)phenyl]-2,4-imidazolidinedione]",Change of basal level of circulating testosterone,[3],causes an increase
